Reference: paper PMC11198769, “Enhancement of transcription efficiency by TAR-Tat system increases the functional expression of human olfactory receptors” (PLOS ONE, 2024)
pEC50: −log10 of the molar value.

Legend:
Assay in all cases: hOR assay (GloSensor cAMP luciferase), dose-response
Format in all cases: cell-based
OR8B8 = target: T1, OR8B8 (Homo sapiens, UniProt Q15620); conditions: OR8B8, with or without the TAR-Tat system
T1 construct: Lucy tag (N); FLAG (N); Rho tag (N); expressed in transfected cells; host or cells: Flp-In T-REx-293 cells stably expressing RTP1S, Gαolf and Ric8-b
T1 sequence (Q15620 1-311): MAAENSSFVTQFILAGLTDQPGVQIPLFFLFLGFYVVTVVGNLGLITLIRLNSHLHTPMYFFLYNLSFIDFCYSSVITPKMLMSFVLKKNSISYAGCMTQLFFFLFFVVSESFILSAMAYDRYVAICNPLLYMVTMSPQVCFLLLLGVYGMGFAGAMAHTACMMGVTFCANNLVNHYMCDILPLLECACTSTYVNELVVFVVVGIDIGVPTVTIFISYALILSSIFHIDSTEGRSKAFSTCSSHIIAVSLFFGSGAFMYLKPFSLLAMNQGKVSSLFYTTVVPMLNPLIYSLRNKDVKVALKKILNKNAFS
Method: (§1) Flp-In T-REx-293 cells stably expressing accessory proteins (RTP1S, Gαolf, and Ric8-b) were established using the Flp-In T-REx system. Accessory proteins-expressing cells were maintained in high-glucose Dulbecco’s modified Eagle medium (Sigma-Aldrich) containing 10% fetal bovine serum (Biowest) and 1% antibiotic–antimycotic (Nacalai tesque) at 37°C with 5% CO2.
(§2) The GloSensor™ Technology (Promega) was used for the luciferase assay of the hOR response. As the negative control, cells that were transfected by the pBApo-CMV neo vector and pHEK293 Ultra Expression Vector I were used as mock cells. hOR/pHEK and hOR/pBApo (50 ng/well) were transfected into the accessory proteins-expressing cell line (40000 cells/well) using Lipofectamine 2000 (Thermo Fisher Scientific) (400 nL/well) along with pGlosensor™-22F cAMP biosensor plasmid (Promega) (50 ng/well) in a 96-well plate. At 28 h posttransfection, the cells were washed with an assay buffer (140 mM NaCl, 10 mM HEPES, 5 mM KCl, 1 mM CaCl2・2H2O, 10 mM D-glucose, pH 7.5) and replaced with the assay buffer (50 μL/well) containing 2% GloSensor cAMP substrate and preincubated for 1 h at 25°C. Then, the assay buffer was added (130 μL/well). After 10 min of equilibration, the luminescence was measured (L0). Odorants diluted in 10% DMSO/assay buffer were treated (20 μL/well). After 9 min, the luminescence was measured (L9min). First, all the L9min values were subtracted by the L0 value (ΔL) and divided by the L0 value (ΔL/L0). The concentration range of the odorants was different for each odorant, but the minimum was 0.01 μM and the maximum was 3 mM. For all hORs, luciferase assays with hOR/pBApo and hOR/pHEK were conducted in the same 96-well plate each time, and luminescence was normalized to a maximum value of 100. Dose–response curve images were graphed using the Graph Pad Prism 9 software (Graph Pad Software).

OR10C1 = target: T2, OR10C1 (Homo sapiens, UniProt Q96KK4); conditions: OR10C1, with or without the TAR-Tat system
T2 construct: Lucy tag (N); expressed in transfected cells; host or cells: Flp-In T-REx-293 cells stably expressing RTP1S, Gαolf and Ric8-b
T2 sequence (Q96KK4 1-312): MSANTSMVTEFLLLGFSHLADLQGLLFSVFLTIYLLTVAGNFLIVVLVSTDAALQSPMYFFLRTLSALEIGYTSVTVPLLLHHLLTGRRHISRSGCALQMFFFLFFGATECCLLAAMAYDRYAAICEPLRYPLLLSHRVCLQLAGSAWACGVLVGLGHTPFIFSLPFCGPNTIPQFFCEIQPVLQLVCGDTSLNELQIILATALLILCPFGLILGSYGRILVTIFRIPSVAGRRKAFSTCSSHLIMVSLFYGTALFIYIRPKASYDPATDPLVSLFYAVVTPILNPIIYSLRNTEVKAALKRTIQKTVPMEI
Method: as §1, §2

OR5K1 = target: T3, OR5K1 (Homo sapiens, UniProt Q8NHB7)
T3 construct: Lucy tag (N); FLAG (N); Rho tag (N); expressed in transfected cells; host or cells: Flp-In T-REx-293 cells stably expressing RTP1S, Gαolf and Ric8-b
T3 sequence (Q8NHB7 1-308): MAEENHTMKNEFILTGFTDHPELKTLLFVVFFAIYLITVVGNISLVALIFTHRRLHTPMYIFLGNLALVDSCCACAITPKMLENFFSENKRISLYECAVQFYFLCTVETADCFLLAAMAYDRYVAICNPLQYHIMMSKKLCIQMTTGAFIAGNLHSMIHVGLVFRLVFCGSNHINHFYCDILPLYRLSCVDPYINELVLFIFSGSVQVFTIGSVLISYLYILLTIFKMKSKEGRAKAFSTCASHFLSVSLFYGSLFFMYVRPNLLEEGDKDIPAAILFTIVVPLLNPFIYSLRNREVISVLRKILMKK
Method: as §1, §2

OR1A1 = target: T4, OR1A1 (Homo sapiens, UniProt Q9P1Q5)
T4 construct: Lucy tag (N); FLAG (N); Rho tag (N); expressed in transfected cells; host or cells: Flp-In T-REx-293 cells stably expressing RTP1S, Gαolf and Ric8-b
T4 sequence (Q9P1Q5 1-309): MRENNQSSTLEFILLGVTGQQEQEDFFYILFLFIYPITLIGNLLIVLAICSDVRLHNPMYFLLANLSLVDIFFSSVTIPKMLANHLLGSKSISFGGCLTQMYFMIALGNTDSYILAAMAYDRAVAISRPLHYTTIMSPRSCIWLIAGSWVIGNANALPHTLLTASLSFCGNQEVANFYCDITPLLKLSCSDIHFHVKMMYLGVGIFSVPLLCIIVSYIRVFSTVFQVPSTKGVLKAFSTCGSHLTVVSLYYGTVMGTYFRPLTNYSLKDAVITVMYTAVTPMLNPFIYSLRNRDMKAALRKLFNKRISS
Method: as §1, §2

OR10A2 = target: T5, OR10A2 (Homo sapiens, UniProt Q9H208); conditions: OR10A2, with or without the TAR-Tat system
T5 construct: Lucy tag (N); expressed in transfected cells; host or cells: Flp-In T-REx-293 cells stably expressing RTP1S, Gαolf and Ric8-b
T5 sequence (Q9H208 1-303): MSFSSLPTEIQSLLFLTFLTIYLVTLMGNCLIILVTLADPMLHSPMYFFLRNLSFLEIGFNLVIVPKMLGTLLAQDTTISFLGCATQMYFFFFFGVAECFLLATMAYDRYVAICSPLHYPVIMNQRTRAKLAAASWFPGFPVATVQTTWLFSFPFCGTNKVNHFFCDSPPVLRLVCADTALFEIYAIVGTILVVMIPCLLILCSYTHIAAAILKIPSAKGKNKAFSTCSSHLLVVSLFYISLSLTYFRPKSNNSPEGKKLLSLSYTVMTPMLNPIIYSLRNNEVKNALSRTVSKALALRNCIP
Method: as §1, §2

SMILES: CCCCCC=O [n-hexanal]
- concentration-dependent response to n-hexanal (OR8B8): no concentration-dependent response
- concentration-dependent response to n-hexanal (OR10C1): no concentration-dependent response
- concentration-dependent response to n-hexanal (OR5K1; OR5K1, with and without the TAR-Tat system): concentration-dependent responses only with the TAR-Tat system
- pEC50 (OR5K1; OR5K1/pHEK (with TAR-Tat system), read-out: EC50 of n-hexanal concentration-response relationship): 4.96
- concentration-dependent response to n-hexanal (OR1A1; OR1A1, with and without the TAR-Tat system): concentration-dependent responses only with the TAR-Tat system
- pEC50 (OR1A1; OR1A1/pHEK (with TAR-Tat system), read-out: EC50 of n-hexanal concentration-response relationship): 3.00
- concentration-dependent response to n-hexanal (OR10A2): no concentration-dependent response
